Where a chain is given by its changes, count along the chain named. Read-outs that look alike come from different tables or passages of the source.
Columns and labels:
[1] = target: T1, F88A hP2X7 (Homo sapiens, UniProt Q99572, F88A); experiment: fura-2 intracellular calcium assay on HEK-293 stable cell line expressing NAM-site mutant F88A hP2X7; format: cell-based; details: for IC50: n = 3
T1 sequence (Q99572 1-595 F88A): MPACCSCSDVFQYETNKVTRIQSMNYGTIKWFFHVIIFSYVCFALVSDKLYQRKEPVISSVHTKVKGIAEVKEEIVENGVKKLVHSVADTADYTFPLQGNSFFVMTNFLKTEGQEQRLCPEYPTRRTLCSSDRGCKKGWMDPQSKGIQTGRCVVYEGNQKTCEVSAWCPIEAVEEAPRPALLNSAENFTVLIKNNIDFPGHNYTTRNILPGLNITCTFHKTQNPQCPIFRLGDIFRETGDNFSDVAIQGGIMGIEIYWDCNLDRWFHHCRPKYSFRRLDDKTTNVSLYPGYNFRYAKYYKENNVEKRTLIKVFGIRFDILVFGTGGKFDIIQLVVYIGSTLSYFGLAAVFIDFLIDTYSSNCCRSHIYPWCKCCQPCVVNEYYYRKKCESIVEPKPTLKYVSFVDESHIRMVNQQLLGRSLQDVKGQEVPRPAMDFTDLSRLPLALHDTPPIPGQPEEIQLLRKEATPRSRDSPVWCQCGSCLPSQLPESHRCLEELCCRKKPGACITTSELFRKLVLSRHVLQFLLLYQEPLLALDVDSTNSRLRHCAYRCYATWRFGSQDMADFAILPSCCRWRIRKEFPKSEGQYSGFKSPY
Procedure: (§1) Transfection was performed using lipofectamine 2000 (Fisher Scientific), and cells were subjected to Geneticin (800 μg/mL) selection for 2–3 weeks. This was followed by single cell cloning by limiting dilution in 96-well plates. Individual clones were selected for further study based on ATP-induced TO-PRO-3 uptake on a BD Cytoflex flow cytometer. Cell lines were maintained in DMEM:F12 media supplemented with 10% fetal bovine serum (PanBiotech), penicillin and streptomycin (Fisher Scientific) and kept in a humidified incubator with 5% CO2. Stable P2X7-expressing cells were kept under Geneticin selection at a concentration of 400 μg/mL. Passaging was performed twice weekly using 0.25% Trypsin-EDTA (Fisher Scientific).
(§2) P2X7 responses were measured by monitoring intracellular calcium responses using fura-2AM loaded cells. Cells were plated at 2–2.5 × 10^4 cells/well the day before experiments in 96-well plates (NUNC) coated with 50 μg/mL poly-D-lysine (Merck Millipore). A loading buffer containing 2 μM fura-2AM (HelloBio) and 250 μM sulfinpyrazone (Merck Millipore) in a low divalent buffer (145 mM NaCl, 5 mM KCl, 0.2 mM CaCl2, 10 mM HEPES, 13 mM glucose, pH 7.3) was added to cells for 45 min at 37 °C. After loading, the buffer was removed and replaced with calcium-containing extracellular solution (145 mM NaCl, 5 mM KCl, 2 mM CaCl2, 10 mM HEPES, 13 mM glucose, pH 7.3). Responses were measured using a Flexstation 3 plate reader (Molecular Devices) with dual excitation wavelengths of 340 and 380 nm and single emission wavelength of 510 nm. The sample interval was 3.5 s, and each well was recorded for 180 s. Fura-2 ratios were calculated in Softmax Pro v5.4; zero baseline was applied, and responses were measured as normalized area under the curve (AUC). Dose inhibition curves were plotted using GraphPad Prism v6 nonlinear regression (three parameter fit) and log IC50 values reported.

[2] = target: T2, M105A hP2X7 (Homo sapiens, UniProt Q99572, M105A); experiment: fura-2 intracellular calcium assay on HEK-293 stable cell line expressing NAM-site mutant M105A hP2X7; format: cell-based; details: for IC50: n = 3
T2 sequence (Q99572 1-595 M105A): T1 sequence (Q99572 1-595 F88A) with A88F, M105A
Procedure: as §1, §2

Molecule `O=C(NCC1(N2CCN(c3ccccc3)CC2)CCOCC1)c1cccnc1Sc1ccccc1` [JNJ-47965567] has an IC50 ([1]; F88A hP2X7, agonist ATP, log IC50 ± standard error, read-out: Log IC50 (converted)) of 121 nM, an IC50 ([1]; F88A hP2X7, agonist ATP, mean in brackets, read-out: mean IC50) of 125 nM and an IC50 ([1]; F88A hP2X7, agonist BzATP, mean in brackets, read-out: mean IC50) of 53.8 nM. For the same molecule, the “increase in IC50 at F88A relative to hP2X7” value ([1]; F88A hP2X7 vs hP2X7) was 10 fold, the IC50 ([2]; M105A hP2X7, agonist ATP, log IC50 ± standard error, read-out: Log IC50 (converted)) was 45.6 nM and the IC50 ([2]; M105A hP2X7, agonist ATP, mean in brackets, read-out: mean IC50) was 45 nM. The IC50 ([2]; M105A hP2X7, agonist BzATP, mean in brackets, read-out: mean IC50) was 28.7 nM and the “increase in IC50 at M105A-hP2X7 relative to hP2X7” value ([2]; M105A hP2X7 vs hP2X7) was “less than 5 fold”.

— article PMC12426935, “On-Cell Saturation Transfer Difference NMR Spectroscopy on Ion Channels: Characterizing Negative Allosteric Modulator Binding Interactions of P2X7” (Journal of the American Chemical Society, 2025)
